{
  "source": "patent US20260364089A1",
  "about": "“PYRIDOPYRIMIDINE KRAS INHIBITORS” (Treeline Biosciences, Inc., priority 2022, published 2026)",
  "format_in_all_cases": "biochemical",
  "key": {"KRas G12V": {"target": "T1, KRas G12V (Homo sapiens, UniProt P01116, G12V)", "T1 construct": "Biotinylated KRas G12V (aa 1-169) loaded with GDP nucleotide; biotin (biotinylated)", "T1 sequence (P01116 1-169 G12V)": "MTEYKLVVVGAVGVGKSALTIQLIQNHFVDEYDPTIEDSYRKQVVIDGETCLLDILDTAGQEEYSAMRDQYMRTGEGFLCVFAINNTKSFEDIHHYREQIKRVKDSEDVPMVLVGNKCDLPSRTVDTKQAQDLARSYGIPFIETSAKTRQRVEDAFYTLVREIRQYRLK", "experiment": "SOS1-Catalyzed Nucleotide Exchange Assay, KRas G12V (Method 1)", "conditions": "5 nM KRas G12V (aa 1-169, GDP-loaded), 50 nM SOS1", "protocol": "KRas G12V [Method 1]: Biotinylated KRas G12V (aa 1-169) loaded with GDP nucleotide and Streptavidin-Europium (SA-EU, Columbia Biosciences) were preincubated in assay buffer (20 mM HEPES pH 7.4, 150 mM NaCl, 5 mM MgCl2, 1 mM DTT, 0.01% Brij-35, 0.3 mg/mL BSA) on ice for 30 min. Separately SOS1 (aa 546-1049) and EDA-GTP-DY647P1 (Jena Bioscience) were preincubated in assay buffer on ice for 30 min. After pre-incubation, 5 μL buffer and 5 μL of KRas G12V-SA-Eu were added to each well of a white, low-volume, non-binding 384-well plate. Compounds were then added to respective wells with a Tecan D300e liquid dispenser. A 10-point concentration response curve for each compound was prepared with appropriate top concentration (1 μM, 10 μM, or 300 μM) and incubated for 30 min. 5 μL of SOS1-EDA-GTP-D467P1 was added to start the nucleotide exchange reaction. Final concentration in the assay were 5 nM KRas G12V, 50 nM SOS1 (aa 564-1049). The reaction was allowed to proceed for 60-90 minutes after which the plate was read on a PHERAstar FSX plate reader (exc: 337 nm, em 1: 665 nm, em 2: 620 nm). After normalization of the raw data (ratio of Signal665nm/Signal620nm) the data was fit to a four-parameter logistic curve in GraphPad Prism (v9.4.1)."}, "KRas G12R": {"target": "T2, KRas G12R (Homo sapiens, UniProt P01116, G12R)", "T2 construct": "KRas G12R (1-169) loaded with GDP nucleotide; biotin (biotinylated)", "T2 sequence (P01116 1-169 G12R)": "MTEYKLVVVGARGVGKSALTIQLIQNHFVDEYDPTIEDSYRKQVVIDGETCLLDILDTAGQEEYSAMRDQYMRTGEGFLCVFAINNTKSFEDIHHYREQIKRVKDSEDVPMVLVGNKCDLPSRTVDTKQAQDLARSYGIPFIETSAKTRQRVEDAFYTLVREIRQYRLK", "experiment": "SOS1-Catalyzed Nucleotide Exchange Assay, KRas G12R", "conditions": "10 nM KRas G12R (1-169, GDP-loaded), 200 nM SOS1", "protocol": "(§1) KRas G12R and WT: Compounds were pre-dispensed using acoustic transfer technology into a black, low volume 384-well assay plate. A 10-point dose response of each compound was performed with a 30 μM top dose. Biotinylated KRas WT(1-169) or KRas G12R (1-169) loaded with GDP nucleotide was mixed with Streptavidin-Tb cryptate (Cisbio) in assay buffer (20 mM HEPES pH 7.4, 150 mM NaCl, 2 mM MgCl2, and 0.005% CA680) to produce a 1.5× solution. 10 μL of the 1.5× KRas-cryptate solution was added to wells of a black, low-volume 384-well assay plate. The KRas/cryptate-compound mixture was incubated for 1 hour at room temperature. A 3× solution of SOS1 (564-1049) and EDA-GTP-DY-647P1 (Jena Bioscience) was prepared in assay buffer. 5 μL of the SOS1-labeled GTP solution was added to the wells to initiate the nucleotide exchange reaction. The final concentration of KRas G12R and SOS1 were 10 nM and 200 nM, respectively. The final concentration of KRas WT and SOS1 were 20 nM and 10 nM, respectively. The plate was allowed to incubate for 1 hr, then time resolved fluorescence was read on a PHERAstar plate reader equipped with a filter module with excitation=337 nm and emission 1=620 nm, emission 2=665 nm. The TR-FRET signal was calculated as the ratio of fluorescence intensity [emission 665 nm]/[emission 620 nm]. IC50 values were calculated using a four-parameter, variable response sigmoidal dose response curve fit in PerkinElmer Signals VitroVivo."}, "KRas WT": {"target": "T3, KRas WT (Homo sapiens, UniProt P01116)", "T3 construct": "Biotinylated KRas WT(1-169); biotin (biotinylated)", "T3 sequence (P01116 1-169)": "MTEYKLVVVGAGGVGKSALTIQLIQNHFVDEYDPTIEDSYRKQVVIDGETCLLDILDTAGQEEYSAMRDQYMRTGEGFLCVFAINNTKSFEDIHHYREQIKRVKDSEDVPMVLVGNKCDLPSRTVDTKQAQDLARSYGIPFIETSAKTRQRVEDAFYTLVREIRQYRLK", "experiment": "SOS1-Catalyzed Nucleotide Exchange Assay, KRas WT", "conditions": "20 nM KRas WT (1-169, GDP-loaded), 10 nM SOS1", "protocol": "as §1"}},
  "data": [
    {"smiles": "O=C1CCCCc2c(Cl)cc(O)cc2-c2ncc3c(nc(OC[C@@]45CCCN4C[C@H](F)C5)nc3c2F)N2CCC[C@H](CCN1)C2", "note": "(single isomer, unassigned) [Compound 115b]", "values": [
      {"measurement": "IC50", "setting": "KRas G12V", "value": "≤ 100", "unit": "nM"},
      {"measurement": "IC50", "setting": "KRas G12R", "value": "≤ 100", "unit": "nM"},
      {"measurement": "KRas WT IC50 (nM)", "setting": "KRas WT", "value": "++ ++"}
    ]},
    {"smiles": "O=C1CCCCc2c(Cl)cc(O)cc2-c2ncc3c(nc(OC[C@@]45CCCN4C[C@H](F)C5)nc3c2F)N2CCC[C@@H](CCN1)C2", "note": "(single isomer, unassigned) [Compound 115c]", "values": [
      {"measurement": "IC50", "setting": "KRas G12V", "value": "≤ 100", "unit": "nM"},
      {"measurement": "IC50", "setting": "KRas G12R", "value": "≤ 100", "unit": "nM"},
      {"measurement": "IC50", "setting": "KRas WT", "value": "≤ 100", "unit": "nM"}
    ]},
    {"smiles": "O=C1CCc2c(Cl)cc(O)cc2-c2ncc3c(nc(OC[C@@]45CCCN4C[C@H](F)C5)nc3c2F)N2CCCC(CCN1)C2", "note": "(stereo partly drawn) [Compound 113a, 3^3-chloro-2^8-fluoro-2^2-(((2R,7aS)-2-fluorotetrahydro-1H-pyrrolizin-7a(5H)-yl)methoxy)-3^5-hydroxy-7-aza-2(4,7)-pyrido[4,3-d]pyrimidina-1(1,3)-piperidina-3(1,2)-benzenacyclononaphan-6-one]", "values": [
      {"measurement": "IC50", "setting": "KRas G12V", "value": "1000 to 10000", "unit": "nM"},
      {"measurement": "IC50", "setting": "KRas G12R", "value": "10000 to 30000", "unit": "nM"},
      {"measurement": "IC50", "setting": "KRas WT", "value": "1000 to 10000", "unit": "nM"}
    ]},
    {"smiles": "O=C1CCCCc2c(Cl)cc(O)cc2-c2ncc3c(nc(OC[C@@]45CCCN4C[C@H](F)C5)nc3c2F)N2CCCC(CCN1)C2", "note": "(stereo partly drawn) [Compound 115a, 3^3-chloro-2^8-fluoro-2^2-(((2R,7aS)-2-fluorotetrahydro-1H-pyrrolizin-7a(5H)-yl)methoxy)-3^5-hydroxy-9-aza-2(4,7)-pyrido[4,3-d]pyrimidina-1(1,3)-piperidina-3(1,2)-benzenacycloundecaphan-8-one]", "values": [
      {"measurement": "IC50", "setting": "KRas G12V", "value": "≤ 100", "unit": "nM"},
      {"measurement": "IC50", "setting": "KRas G12R", "value": "≤ 100", "unit": "nM"},
      {"measurement": "IC50", "setting": "KRas WT", "value": "≤ 100", "unit": "nM"}
    ]},
    {"smiles": "Oc1cc2c3c(c(F)ccc3c1)-c1cn(nn1)CCCCC1CCCN(C1)c1nc(OC[C@@]34CCCN3C[C@H](F)C4)nc3c(F)c-2ncc13", "note": "(stereo partly drawn) [Compound 125a, (Z)-2^8,3^7-difluoro-2^2-(((2R,7aS)-2-fluorotetrahydro-1H-pyrrolizin-7a(5H)-yl)methoxy)-4^1H-2(4,7)-pyrido[4,3-d]pyrimidina-1(1,3)-piperidina-4(4,1)-triazola-3(1,8)-naphthalenacyclooctaphan-3^3-ol]", "values": [
      {"measurement": "IC50", "setting": "KRas G12V", "value": "10000 to 30000", "unit": "nM"},
      {"measurement": "IC50", "setting": "KRas G12R", "value": "10000 to 30000", "unit": "nM"},
      {"measurement": "IC50", "setting": "KRas WT", "value": "1000 to 10000", "unit": "nM"}
    ]},
    {"smiles": "O=C1CCCCc2c(Cl)cc(O)cc2-c2ncc3c(nc(OC[C@@]45CCCN4C[C@H](F)C5)nc3c2F)N2CCCC(O)(CCN1)C2", "note": "(stereo partly drawn) [Compound 140a, 3^3-chloro-2^8-fluoro-2^2-(((2R,7aS)-2-fluorotetrahydro-1H-pyrrolizin-7a(5H)-yl)methoxy)-1^3,3^5-dihydroxy-9-aza-2(4,7)-pyrido[4,3-d]pyrimidina-1(1,3)-piperidina-3(1,2)-benzenacycloundecaphan-8-one]", "values": [
      {"measurement": "IC50", "setting": "KRas G12V", "value": "≤ 100", "unit": "nM"}
    ]},
    {"smiles": "O=C1CCCCc2c(Cl)cc(O)cc2-c2ncc3c(nc(OC[C@@]45CCCN4C[C@H](F)C5)nc3c2F)N2CCCC(CN1)C2", "note": "(stereo partly drawn) [Compound 141a, 3^3-chloro-2^8-fluoro-2^2-(((2R,7aS)-2-fluorotetrahydro-1H-pyrrolizin-7a(5H)-yl)methoxy)-3^5-hydroxy-9-aza-2(4,7)-pyrido[4,3-d]pyrimidina-1(1,3)-piperidina-3(1,2)-benzenacyclodecaphan-8-one]", "values": [
      {"measurement": "IC50", "setting": "KRas G12V", "value": "≤ 100", "unit": "nM"}
    ]},
    {"smiles": "Oc1ccc2c(c1)-c1ncc3c(nc(OC[C@@]45CCCN4C[C@H](F)C5)nc3c1F)N1CCCC(CCCCCCC2)C1", "note": "(stereo partly drawn) [Compound 143a, 2^8-fluoro-2^2-(((2R,7aS)-2-fluorotetrahydro-1H-pyrrolizin-7a(5H)-yl)methoxy)-2(4,7)-pyrido[4,3-d]pyrimidina-1(1,3)-piperidina-3(1,2)-benzenacyclodecaphan-3^5-ol]", "values": [
      {"measurement": "IC50", "setting": "KRas G12V", "value": "100 to 1000", "unit": "nM"},
      {"measurement": "IC50", "setting": "KRas G12R", "value": "100 to 1000", "unit": "nM"},
      {"measurement": "IC50", "setting": "KRas WT", "value": "≤ 100", "unit": "nM"}
    ]},
    {"smiles": "Oc1cc(Cl)c2c(c1)-c1ncc3c(nc(OC[C@@]45CCCN4C[C@H](F)C5)nc3c1F)N1CCCC(O)(CCCCCC2)C1", "note": "(stereo partly drawn) [Compound 151a, 3^3-chloro-2^8-fluoro-2^2-(((2R,7aS)-2-fluorotetrahydro-1H-pyrrolizin-7a(5H)-yl)methoxy)-2(4,7)-pyrido[4,3-d]pyrimidina-1(1,3)-piperidina-3(1,2)-benzenacyclononaphane-1^3,3^5-diol]", "values": [
      {"measurement": "IC50", "setting": "KRas G12V", "value": "≤ 100", "unit": "nM"},
      {"measurement": "IC50", "setting": "KRas G12R", "value": "≤ 100", "unit": "nM"},
      {"measurement": "IC50", "setting": "KRas WT", "value": "≤ 100", "unit": "nM"}
    ]}
  ]
}
